Assay results published in article PMC12667295, “A surrogate barrier model for high-throughput blood-brain barrier permeability prediction: integrating LLC-PK1-MOCK/MDR1 Cells and lysosomal trapping correction” (Drug Delivery, 2025).
Where two headings read alike, the source gives them in different places.

Tests used:
P-gp (human MDR1) [1] = assay: Bidirectional transport across LLC-PK1-MDR1 monolayer stably expressing human MDR1 (P-gp) (Transwell); conditions: pig;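 also: 2 h incubation at 37 °C, receiver HBSS with 10 mM Hepes plus 1% BSA, LC-MS/MS of donor and receiver, recovery as receiver plus donor amount over initial donor amount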
Description: (§3) The overexpression and functional activity of P-glycoprotein (P-gp) in the LLC-PK1-MDR1 cells were rigorously validated through multiple methods.
(§4) Cells were passaged at 80−90% confluence (every 2−3 days) using trypsin-EDTA solution. […] The culture medium was replaced every other day, including 200 µL culture medium in the apical and 850 µL cell culture medium in the basolateral side. LLC-PK1 MOCK cells were used at passages of 3−30. LLC-PK1-MDR1 cells were cultured and passaged in the same manner as LLC-PK1 cells except at the density of 1 × 10^4 cells per well. LLC-PK1-MDR1 cells were used at passages of 3−25. For LLC-PK1 MOCK cells and LLC-PK1-MDR1 cells, the experiments were performed on the 4th and 7th day after seeding.
(§5) Monitoring permeability of positive control drugs. […] Samples were collected from the donor well at the start of the incubation (50 µL) as C0, and from the donor and receiver wells at the end of the incubation (50 µL). All samples were stored at - 40 °C for LC-MS/MS analysis.
(§6) Bidirectional transport experiments. […] The transwell experiments were conducted following above-mentioned procedure. […] When the recovery rate of the tested drug is below 80%, the possibility of intracellular accumulation should be considered. The polycarbonate (PC) membrane where cells are grown should be carefully peeled off from the cell culture medium and placed in 100 µL of HBSS buffer solution. […] The process was carried out on ice to prevent heat-induced degradation, applying a power in the range of 300 W for a total duration of 20 minutes. Thereafter, a quantitative analysis of the intracellular drug was conducted, and the drug recovery rate was recalculated based on this analysis.
(§7) The apparent permeability coefficient (Papp, cm/s) was calculated for each transport direction, A-B and B-A, using the following equation: Papp=dQ/dt×1/A×C0 where dQ/dt is the permeation rate (µmol/s), A is the surface area of the insert (0.33 cm^2, Corning), and C0 is the initial donor concentration (µM).
(§8) The efflux ratio (ER) is calculated as the ratio of Papp (B-A)/Papp (A-B). Recovery=TRcumrf+Cdf×VD/Cdi×VD×100% Where TRcumrf is the cumulative transported mass in the receiver chamber at the end of the incubation (nmol), Cdf is the concentration of the drug in the donor chamber at the end of the incubation (μM), VD is the volume of the donor chamber (mL), and Cdi is the initial concentration of the drug in the donor chamber (μM).
(§9) The method of the bidirectional transport experiment was the same as before.

in vitro [2] = assay: in vitro
Description: (§1) Stocks (10 mM) of test compounds were diluted to 5 μM with plasma or tissue homogenate and dialyzed at 37 °C for 6 hours in a shaking incubator. After incubation aliquots of both plasma or tissue homogenate and buffer from the device were taken and added to equal volumes of blank buffer and plasma or tissue homogenate respectively. Samples were then diluted in acetonitrile containing an internal standard prior to centrifugation and analysis of the supernatants by LC-MS/MS. The fu, plasma was calculated using Equation 1:(1) fu,plasma=Concbuffer chamber/Concsample chamber
(§2) Unbound fractions of test drugs in plasma (fu,plasma) and brain tissue (fu,brain). For compounds with existing rat plasma or brain protein-binding data from literature or internal studies, values were directly adopted.

P-gp (human MDR1) [3] = assay: in vitro; conditions: pig, LLC-PK1, pH 7.4
Description: as §3, §4, §5, §6, §7, §8, §9

in vivo = conditions: rat
Description: In vivo unbound brain distribution data (Kp,uu,Brain) for 16 drugs and total brain distribution data (Kp,Brain) for 16 drugs was acquired from literature. […] For each tested compound, fifteen rats were randomly divided into five groups of three rats each. […] The time of execution of the rats by CO2 inhalation after administration was optimized according to the in vivo elimination rate to achieve five concentrations of different time points. After the rats were euthanized, cardiac puncture was performed immediately to remove as much whole blood as possible (~7 ml) from the systemic circulation (Quantitatively aliquot 0.2 ml of whole blood for the determination of drug concentration in plasma). Afterwards, the brain tissue was collected immediately and rinsed repeatedly with ice-cold saline 3 times. Then, the surface saline was blotted dry with clean filter paper to remove as much residual drug in the blood vessels as possible. Plasma samples were prepared by centrifugation of the blood samples at 2,500 g for 10 minutes at 4 °C. All brain samples were homogenized by adding 4-fold volume water. All samples were stored at -40 °C before LC-MS/MS analysis. […] The brain tissue partition coefficient (Kp, brain) and brain-to-plasma unbound drug partition ratio (Kp,uu, brain) are calculated according to the following formulas, respectively: Kp,brain=AUC(0−∞,brain)/AUC(0−∞,plasma)Kp,uu,brain=Kp,brain×(fu,tissue/fu,plasma)
Free brain-to-plasma distribution coefficients (Kp,uu,brain) of 41 drugs. Brain distribution coefficients (Kp,uu,brain) were calculated for 41 drugs. […] Plasma and brain concentration-time profiles were generated, and AUC(0-t) values for both matrices were calculated using WinNolin 8.1. Kp,brain was derived as the ratio of brain-to-plasma AUC(0-t).
Kp,uu,brain values were computed by normalizing Kp,brain to unbound fractions (fu,plasma and fu,brain).

in vitro [4] = assay: in vitro; remark: listed apart in the source
Description: as §1
Rat fraction unbound in brain (fu, brain) was determined as the ratio of concentration in buffer to that in brain.
as §2

[5] = Bidirectional transport across LLC-PK1 MOCK monolayer (Transwell); conditions: pig; for recovery at 2 h, 2 µM: LLC-PK1 MOCK cell monolayer (Transwell);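 as to all read-outs here: compound quantified by LC-MS/MS in donor and receiver wells, efflux ratio as B-A over A-B Papp, recovery relative to initial donor amount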
Description: as §4
(§10) Samples were collected from the donor well at the start of the incubation (50 µL) as C0, and from the donor and receiver wells at the end of the incubation (50 µL). All samples were stored at - 40 °C for LC-MS/MS analysis.
as §6, §7, §8, §9

[6] = cited from earlier work
in vitro [7] = conditions: pig, LLC-PK1 MOCK cell monolayer (Transwell), pH 7.4
Description: as §4, §10, §6, §7, §8, §9

[8] = footnote b, species not stated; ref https://go.drugbank.com; cited from earlier work
[9] = LLC-PK1, pH 7.4, Papp A-B, LLC-PK1 MOCK, 2 µM, 2 h, mean ± s, n = 3, BLQ = below 2 nM
[10] = LLC-PK1, pH 7.4, Papp A-B, LLC-PK1-MDR1, 2 µM, 2 h, mean ± s, n = 3

Row | Compound | Papp A→B at 2 h, 2 µM (P-gp (human MDR1) [1]; LLC-PK1, pH 7.4) | Papp B→A at 2 h, 2 µM (P-gp (human MDR1) [1]; LLC-PK1, pH 7.4) | recovery at 2 h, 2 µM (P-gp (human MDR1) [3]) | Kp (in vivo; SD, iv, 1 mg/kg, Kp, Brain) | fraction unbound at 6 h, 5 µM (in vitro [4]; rat, brain homogenate) | Papp B→A at 2 h, 2 µM ([5]; LLC-PK1, pH 7.4) | Papp A→B at 2 h, 2 µM [5, 9] | recovery at 2 h, 2 µM (in vitro [7]) | further results
1 | Cc1cc(=O)n(-c2ccccc2)n1C [Antipyrine] | 30.9 ± 1.46 ×10⁻⁶ cm/s | 28.9 ± 1.75 ×10⁻⁶ cm/s | 113 ± 1.41% | 0.755 | 0.809 | 23.6 ± 1.43 ×10⁻⁶ cm/s | 31.4 ± 3.13 ×10⁻⁶ cm/s |  | Protein binding in plasma (in vitro [2]; rat, 6 h, 5 µM): 15.0 ± 5.22%; Kp uu (in vivo; SD, iv, 1 mg/kg): 0.72; recovery at 2 h, 2 µM ([5]; pH 7.4, Recovery A-B, LLC-PK1 MOCK, 2 µM, 2 h, n = 3): 116 ± 7.41%; recovery at 2 h, 2 µM ([5]; pH 7.4, Recovery B-A, LLC-PK1 MOCK, 2 µM, 2 h, n = 3): 95.2 ± 2.32%
2 | CCC1(c2cnc[nH]2)Cc2ccccc2C1 [Atipamezole] | 33.7 ± 5.21 ×10⁻⁶ cm/s | 27.6 ± 1.5 ×10⁻⁶ cm/s |  |  |  | 30.2 ± 4.52 ×10⁻⁶ cm/s | 33.9 ± 1.72 ×10⁻⁶ cm/s |  | Kp, Brain ([6]; ref Li [2019]): 4.40; Kp,uu,Brian ([6]; ref Li [2019]): 1.700
3 | CC(NC(C)(C)C)C(=O)c1cccc(Cl)c1 (stereo not shown) [Bupropion] | 26.6 ± 2.58 ×10⁻⁶ cm/s | 19.5 ± 1 ×10⁻⁶ cm/s |  |  |  | 23.8 ± 0.67 ×10⁻⁶ cm/s | 27.3 ± 2.88 ×10⁻⁶ cm/s |  | Kp, Brain ([6]; ref Fridén [2009]): 9.78; Kp,uu,Brian ([6]; ref Fridén [2009]): 2.000
4 | Cn1c(=O)c2c(ncn2C)n(C)c1=O [Caffeine] |  | 33.3 ± 1.49 ×10⁻⁶ cm/s |  |  | 0.719 | 34.1 ± 1.49 ×10⁻⁶ cm/s | 34 ± 1.22 ×10⁻⁶ cm/s | 121 ± 2.48% | Papp A→B at 2 h, 2 µM (P-gp (human MDR1) [1]; [10]): 36.4 ± 1.42 ×10⁻⁶ cm/s; Kp, Brain ([6]; ref Bohnert [2016]): 0.618; fraction unbound at 6 h, 5 µM (in vitro [2]; rat, plasma): 0.772; Kp uu (in vivo): 0.576
5 | CN/C(=N/CCSCc1nc[nH]c1C)NC#N [Cimetidine] |  | 33.9 ± 4.3 ×10⁻⁶ cm/s | 87.4 ± 9.65% | 0.007 | 0.655 | 0.28 ± 0.07 ×10⁻⁶ cm/s | 0.69 ± 0.07 ×10⁻⁶ cm/s | 96.9 ± 13.3% | Papp A→B at 2 h, 2 µM (P-gp (human MDR1) [1]; [10]): 1.32 ± 0.31 ×10⁻⁶ cm/s; fraction unbound at 6 h, 5 µM (in vitro [2]; rat, plasma): 0.722; Kp uu (in vivo; SD, iv, 1 mg/kg): 0.008
6 | COc1ccc2c(c1)[C@]13CCCC[C@@H]1[C@H](C2)N(C)CC3 [Dextromethorphan] | 18.8 ± 0.12 ×10⁻⁶ cm/s | 21.9 ± 3.18 ×10⁻⁶ cm/s | 93.6 ± 6.54% |  |  | 25.9 ± 0.91 ×10⁻⁶ cm/s |  |  | efflux ratio at 2 h, 2 µM (P-gp (human MDR1) [1]; LLC-PK1, pH 7.4): 1.17; fraction unbound at 6 h, 5 µM (in vitro [2]): 0.35; Kp (in vivo; SD, in vivo, iv, 1 mg/kg): 11.5; Kp uu (in vivo; SD, in vivo, iv, 1 mg/kg): 0.825; fraction unbound at 6 h, 5 µM (in vitro [4]): 0.033; Papp A→B at 2 h, 2 µM ([5]; LLC-PK1, pH 7.4): 35.5 ± 2.09 ×10⁻⁶ cm/s; efflux ratio at 2 h, 2 µM ([5]; LLC-PK1, pH 7.4): 0.73
7 | CN(C)CCOC(c1ccccc1)c1ccccc1 [Diphenhydramine] |  |  |  |  |  |  |  | 101 ± 7.46% | 
8 | COc1cc([C@@H]2c3cc4c(cc3[C@@H](O[C@@H]3O[C@@H]5CO[C@@H](C)O[C@H]5[C@H](O)[C@H]3O)[C@H]3COC(=O)[C@H]23)OCO4)cc(OC)c1O [Etoposide] | 0.75 ± 0.1 ×10⁻⁶ cm/s | 3.68 ± 0.22 ×10⁻⁶ cm/s | 100 ± 2.47% | 0.025 | < 0.01 | 0.16 ± 0.02 ×10⁻⁶ cm/s |  | 106 ± 0.11% | Protein binding in plasma [8]: 97.0^b %; Kp (in vivo; SD, iv, 1 mg/kg, Kp,uu,Brian): 0.008
9 | COc1ccc2c(c1)c(CC(=O)O)c(C)n2C(=O)c1ccc(Cl)cc1 [Indomethacin] | 14.9 ± 1.29 ×10⁻⁶ cm/s | 20.3 ± 2.74 ×10⁻⁶ cm/s | 99.7 ± 4.24% |  |  | 18.9 ± 0.31 ×10⁻⁶ cm/s | 16.1 ± 2.07 ×10⁻⁶ cm/s | 109 ± 5.97% | efflux ratio at 2 h, 2 µM (P-gp (human MDR1) [1]; LLC-PK1, pH 7.4): 1.36; Kp, Brain ([6]; ref Fridén [2009]): 0.01; Kp,uu,Brian ([6]; ref Fridén [2009]): 0.11; efflux ratio at 2 h, 2 µM ([5]; LLC-PK1, pH 7.4): 1.18
